# How the values were obtained:
# Test in all cases: greenhouse test, pre-emergence treatment
# BRAPL = format: in vivo, Brachiaria plantaginea
# Description: (§1) The culture containers used were plastic pots containing loamy sand with approximately 3.0% of humus as substrate. The seeds of the test plants were sown separately for each species.
# (§2) For the pre-emergence treatment, the active compounds, suspended or emulsified in water, were applied directly after sowing by means of finely distributing nozzles. The containers were irrigated gently to promote germination and growth and subsequently covered with transparent plastic hoods until the plants had rooted. This cover caused uniform germination of the test plants unless this was adversely affected by the active compounds.
# (§3) Depending on the species, the plants were kept at 10-25° C. and 20-35° C., respectively. The test period extended over 2 to 4 weeks. During this time, the plants were tended and their response to the individual treatments was evaluated.
# (§4) Evaluation was carried out using a scale from 0 to 100. 100 means no emergence of the plants, or complete destruction of at least the above-ground parts, and 0 means no damage or normal course of growth. Good herbicidal activity is given at values of at least 70, and very good herbicidal activity is given at values of at least 85.
# (§5) The respective stated components A and B, and if appropriate, C were formulated as a 5% by weight or 10% by weight strength emulsion concentrate or a commercially available formulation of component B was used and, with addition of the amount of solvent system, introduced into the spray liquor used for applying the active compound. In the examples, the solvent used was water.
# (§6) The test period extended over 20 or 21 days. During this time, the plants were tended, and their reactions to the treatment with active compound was monitored.
# (§7) What was evaluated was the damage by the chemical compositions using a scale of from 0 to 100%, in comparison to the untreated control plants. 0 means no damage, and 100 means complete destruction of the plants.
# (§8) In the examples below, using the method of S. R. Colby (1967) “Calculating synergistic and antagonistic responses of herbicide combinations”, Weeds 15, p. 22 ff., the value E, which is expected if the activity of the individual active compounds is only additive, was calculated.
# (§9) where X=percent activity using active compound A at an application rate a; Y=percent activity using active compound B at an application rate b; E=expected activity (in %) by A+B at application rates a+b.
# (§10) If the value found in experiments is higher than the value E calculated according to Colby, a synergistic effect is present.
# DIGSA = format: in vivo, Digitaria sanguinalis
# Description: as §1, §2, §3, §4, §5, §6, §7, §8, §9, §10
# LOLMU = format: in vivo, Lolium multiflorum; conditions: Use Example 21
# Description: as §1, §2, §3, §4, §5, §6, §7, §8, §9, §10
# PHACA = format: in vivo, Phalaris canariensis; conditions: Use Example 20
# Description: as §1, §2, §3, §4, §5, §6, §7, §8, §9, §10
# ECHCG = format: in vivo, Echinochloa crus-galli
# Description: as §1, §2, §3, §4, §5, §6, §7, §8, §9, §10
# ALOMY = format: in vivo, Alopecurus myosuroides
# Description: as §1, §2, §3, §4, §5, §6, §7, §8, §9, §10
# LAMPU = format: in vivo, Lamium purpureum
# Description: as §1, §2, §3, §4, §5, §6, §7, §8, §9, §10
# SETFA = format: in vivo, Setaria faberi
# Description: as §1, §2, §3, §4, §5, §6, §7, §8, §9, §10
# SOLNI = format: in vivo, Solanum nigrum L.
# Description: as §1, §2, §3, §4, §5, §6, §7, §8, §9, §10
# APESV = format: in vivo, Apera spica-venti
# Description: as §1, §2, §3, §4, §5, §6, §7, §8, §9, §10
# SETLU = format: in vivo, Setaria glauca
# Description: as §1, §2, §3, §4, §5, §6, §7, §8, §9, §10
# MATIN = format: in vivo, Matricaria inodora; conditions: 1000 g/ha a.s., Use Example 2
# Description: as §1, §2, §3, §4, §5, §6, §7, §8, §9, §10
# STEME = format: in vivo, Stellaria media; conditions: 1000 g/ha a.s., Use Example 2
# Description: as §1, §2, §3, §4, §5, §6, §7, §8, §9, §10
# POAAN = format: in vivo, Poa annua; conditions: Use Example 15
# Description: as §1, §2, §3, §4, §5, §6, §7, §8, §9, §10
# [1] = 31.25 g/ha a.s., Use Example 23
# [2] = 31.25 g/ha a.s., Use Example 14
smiles,measurement,setting,value
"CCNc1nc(Cl)nc(NC(C)(C)C)n1 [Terbuthylazine, reference compound]",Herbicidal action in % after 20 days against BRAPL,"BRAPL; 250 g/ha a.s., Use Example 5",15%
same,Herbicidal action in % after 20 days against DIGSA,"DIGSA; 250 g/ha a.s., Use Example 5",35%
"CN1C(=O)C(Cc2ccccc2)N(C)C(=O)C1=Cc1ccccc1C#N (racemic) [Compound I-1 (Z) (Racemate), 2-[5-benzyl-1,4-dimethyl-3,6-dioxopiperazin-2-ylidenemethyl]benzonitrile]",Herbicidal action in % after 20 days against LOLMU,LOLMU; 63 g/ha a.s.,30%
same,Herbicidal action in % after 20 days against LOLMU,LOLMU; 125 g/ha a.s.,50%
same,Herbicidal action in % after 20 days against PHACA,PHACA; 125 g/ha a.s.,65%
same,Herbicidal action in % after 20 days against PHACA,PHACA; 250 g/ha a.s.,90%
same,Herbicidal action in % after 20 days against ECHCG,"ECHCG; 125 g/ha a.s., Use Example 22",20%
same,Herbicidal action in % after 20 days against ECHCG,"ECHCG; 125 g/ha a.s., Use Example 23",20%
same,Herbicidal action in % after 20 days against ECHCG,"ECHCG; 250 g/ha a.s., Use Example 22",70%
same,Herbicidal action in % after 20 days against ECHCG,"ECHCG; 250 g/ha a.s., Use Example 23",70%
same,Herbicidal action in % after 20 days against ALOMY,"ALOMY; 63 g/ha a.s., Use Example 21",30%
same,Herbicidal action in % after 20 days against ALOMY,"ALOMY; 125 g/ha a.s., Use Example 21",75%
same,Herbicidal action in % after 20 days against BRAPL,"BRAPL; 125 g/ha a.s., Use Example 23",40%
same,Herbicidal action in % after 20 days against BRAPL,"BRAPL; 250 g/ha a.s., Use Example 19",75%
same,Herbicidal action in % after 20 days against BRAPL,"BRAPL; 250 g/ha a.s., Use Example 23",75%
same,Herbicidal action in % after 20 days against DIGSA,"DIGSA; 125 g/ha a.s., Use Example 22",40%
same,Herbicidal action in % after 20 days against DIGSA,"DIGSA; 125 g/ha a.s., Use Example 23",40%
same,Herbicidal action in % after 20 days against DIGSA,"DIGSA; 250 g/ha a.s., Use Example 19",65%
same,Herbicidal action in % after 20 days against DIGSA,"DIGSA; 250 g/ha a.s., Use Example 22",65%
same,Herbicidal action in % after 20 days against DIGSA,"DIGSA; 250 g/ha a.s., Use Example 23",65%
same,Herbicidal action in % after 20 days against LAMPU,"LAMPU; 63 g/ha a.s., Use Example 21",0%
same,Herbicidal action in % after 20 days against LAMPU,"LAMPU; 125 g/ha a.s., Use Example 20",30%
same,Herbicidal action in % after 20 days against LAMPU,"LAMPU; 125 g/ha a.s., Use Example 21",30%
same,Herbicidal action in % after 20 days against LAMPU,"LAMPU; 250 g/ha a.s., Use Example 20",80%
same,Herbicidal action in % after 20 days against SETFA,"SETFA; 125 g/ha a.s., Use Example 22",75%
same,Herbicidal action in % after 20 days against SETFA,"SETFA; 250 g/ha a.s., Use Example 19",85%
same,Herbicidal action in % after 20 days against SETFA,"SETFA; 250 g/ha a.s., Use Example 22",85%
same,Herbicidal action in % after 20 days against SOLNI,"SOLNI; 125 g/ha a.s., Use Example 22",40%
same,Herbicidal action in % after 20 days against SOLNI,"SOLNI; 125 g/ha a.s., Use Example 23",40%
same,Herbicidal action in % after 20 days against SOLNI,"SOLNI; 250 g/ha a.s., Use Example 19",65%
same,Herbicidal action in % after 20 days against SOLNI,"SOLNI; 250 g/ha a.s., Use Example 22",65%
same,Herbicidal action in % after 20 days against SOLNI,"SOLNI; 250 g/ha a.s., Use Example 23",65%
same,Herbicidal action in % after 20 days against APESV,"APESV; 63 g/ha a.s., Use Example 21",80%
same,Herbicidal action in % after 20 days against APESV,"APESV; 125 g/ha a.s., Use Example 20",90%
same,Herbicidal action in % after 20 days against APESV,"APESV; 125 g/ha a.s., Use Example 21",90%
same,Herbicidal action in % after 20 days against APESV,"APESV; 250 g/ha a.s., Use Example 20",95%
"COC[C@H](C)N(C(=O)CCl)c1c(C)csc1C [Dimethenamide-P, reference compound]",Herbicidal action in % after 20 days against ECHCG,"ECHCG; 16 g/ha a.s., Use Example 23",50%
same,Herbicidal action in % after 20 days against ECHCG,ECHCG; [1],85%
same,Herbicidal action in % after 20 days against BRAPL,"BRAPL; 16 g/ha a.s., Use Example 23",40%
same,Herbicidal action in % after 20 days against BRAPL,BRAPL; [1],50%
same,Herbicidal action in % after 20 days against DIGSA,"DIGSA; 16 g/ha a.s., Use Example 23",70%
same,Herbicidal action in % after 20 days against DIGSA,DIGSA; [2],90%
same,Herbicidal action in % after 20 days against DIGSA,DIGSA; [1],85%
same,Herbicidal action in % after 20 days against SETLU,SETLU; [2],65%
same,Herbicidal action in % after 20 days against SETFA,SETFA; [2],95%
same,Herbicidal action in % after 20 days against SOLNI,"SOLNI; 16 g/ha a.s., Use Example 23",60%
same,Herbicidal action in % after 20 days against SOLNI,SOLNI; [1],80%
"CS(=O)(=O)c1cc(C(F)(F)F)ccc1C(=O)c1cnoc1C1CC1 [Isoxaflutol, Isoxaflutole]",Herbicidal action in % after 20 days against BRAPL,"BRAPL; 13 g/ha a.s., Use Example 19",75%
same,Herbicidal action in % after 21 days against BRAPL,"BRAPL; 25 g/ha a.s., Use Example 9",90%
same,Herbicidal action in % after 20 days against BRAPL,"BRAPL; 25 g/ha a.s., Use Example 19",80%
same,Herbicidal action in % after 20 days against DIGSA,"DIGSA; 13 g/ha a.s., Use Example 19",75%
same,Herbicidal action in % after 21 days against DIGSA,"DIGSA; 25 g/ha a.s., Use Example 9",98%
same,Herbicidal action in % after 20 days against DIGSA,"DIGSA; 25 g/ha a.s., Use Example 19",95%
same,Herbicidal action in % after 21 days against SETLU,"SETLU; 25 g/ha a.s., Use Example 9",75%
same,Herbicidal action in % after 20 days against SETFA,"SETFA; 13 g/ha a.s., Use Example 19",40%
same,Herbicidal action in % after 20 days against SETFA,"SETFA; 25 g/ha a.s., Use Example 19",55%
same,Herbicidal action in % after 20 days against SOLNI,"SOLNI; 13 g/ha a.s., Use Example 19",85%
same,Herbicidal action in % after 20 days against SOLNI,"SOLNI; 25 g/ha a.s., Use Example 19",98%
"CCCN(CCC)C(=O)SCc1ccccc1 [Prosulfocarb, reference compound]",Herbicidal action in % after 20 days against ECHCG,"ECHCG; 1000 g/ha a.s., Use Example 2",40%
same,Herbicidal action in % after 20 days against MATIN,MATIN,30%
same,Herbicidal action in % after 20 days against STEME,STEME,80%
same,Herbicidal action in % after 20 days against ALOMY,"ALOMY; 1000 g/ha a.s., Use Example 2",70%
"CCC(C)(CC)c1cc(NC(=O)c2c(OC)cccc2OC)on1 [Isoxaben, reference compound]",Herbicidal action in % after 20 days against ALOMY,"ALOMY; 25 g/ha a.s., Use Example 15",0%
same,Herbicidal action in % after 20 days against ALOMY,"ALOMY; 50 g/ha a.s., Use Example 15",0%
same,Herbicidal action in % after 20 days against POAAN,POAAN; 25 g/ha a.s.,0%
same,Herbicidal action in % after 20 days against POAAN,POAAN; 50 g/ha a.s.,0%

# From US20100190794A1, “Herbicidally Active Composition” (BASF SE, priority 2007, published 2010)
